The conditions of data set [1]: in vivo; cited from earlier work.
Data set [2] has as its system HCV. The experiment in a line: EC90 of Formula XIVa used as plasma concentration threshold. Particulars: Hepatitis C virus.
Data set [3] can be described thus: Exposure multiple of Formula Ia, most sensitive animal species versus humans. The class given is in vivo. Particulars: most sensitive animal species compared with mean exposure in humans receiving 400 mg TID.
A further data set concerns human liver cytosol. The experiment in a line: Incubation of compound Formula Ia or Formula XXVII in human liver cytosol with AKR inhibitor or CYP3A4 inhibitor (formation of M+2 metabolite, LC-MS). In kind it is in vitro ADME. On the procedure:
Prior to the addition of drug, the incubation mixture was preincubated for 2 min at 37° C. […] Human liver microsomes and cytosol without NADPH served as negative controls. Parallel incubations with the compound of Formula Ia were used as positive controls. […] All incubations were performed as described previously for human liver cytosols. […] Parallel incubations with the compound of Formula Ia were used as positive controls.

The nature of data set [4]: Clinical study: pharmacokinetics of Formula Ia administered in combination with ritonavir. The class given is in vivo, human. The method, then:
This study was an open-label, randomized, 2-period fixed-sequence, multiple-dose study (FIG. 4). The safety of coadministration of Formula Ia and ritonavir, as well as the quantitation of the ability of ritonavir to enhance Formula Ia PK parameters (specifically trough concentration values) in healthy human subjects was explored. A dose of 400 mg TID of Formula Ia coadministered with ritonavir was selected, as we have substantial safety and PK data available with Formula Ia administered alone at 400 mg TID and 800 TID for comparison. The dose selected of ritonavir was at a level to inhibit CYP3A4 and below the therapeutic dose for HIV. […] In this study, the effect of ritonavir on Formula Ia was examined as a low dose (100 mg) at two different dosing frequencies (i.e., once in the morning (QAM) and twice a day (BID)), which are commonly administered in HIV therapy. Based upon the findings of these regimens, subsequent regimens may be explored, with modification of the Formula Ia and/or ritonavir component(s). Human subjects received Formula Ia alone for 5 days in order to achieve steady-state. Human subjects were then randomized to receive one of two treatment regimens in which ritonavir was coadministered with Formula Ia (Formula Ia for 10 days, ritonavir administered for 12 days). Steady-state PK samples for Formula Ia were collected on Day 5 (Formula Ia alone), and on Day 15 (Formula Ia+ritonavir) and the PK parameters (primarily trough concentrations values) compared. […] In Period 1, all 16 human subjects received Treatment A and in Period 2 human subjects were randomized to either Treatment B or Treatment C (8 human subjects/treatment). […] Treatment A: Formula Ia 400 mg TID, every 8 hours) (Q8° following a meal or snack. Period 2 (Days 6 to 17): Treatment B: Formula Ia 400 mg TID (Q8°, Days 6 to 15), ritonavir 100 mg QAM (Days 6 to 17), following a meal or snack; Treatment C: Formula Ia 400 mg BID, every 12 hours ([…]°), (Days 6 to 15), ritonavir 100 mg BID, […]° (Days 6 to 17), following a meal or snack. Formula Ia (2×200 mg 3% SLS containing capsules), PO, TID, following a meal or snack. Formula Ia (2×200 mg 3% SLS containing capsules), PO, BID, following a meal or snack. Ritonavir (1×100 mg capsules), PO, QAM, following a meal or snack. Ritonavir (1×100 mg capsules), PO, BID, following a meal or snack. The trough levels after multiple-dosing of Formula Ia alone (Day 5) and after multiple-dosing of Formula Ia in combination with ritonavir (Day 15) were compared. […] AUC, Cmax, Cmin, and Tmax. […] The primary pharmacokinetic parameter is Cmin. The secondary parameters are Cmax and AUC. The log transformed pharmacokinetic parameters including Cmin, AUC, and Cmax were statistically analyzed using ANOVA model extracting effects due to treatment and human subject. […] The corresponding 90% confidence intervals were also provided. There is no intention to compare Treatments B and C to each other. • Treatment A: Formula Ia 400 mg TID (Q8°) following a meal or snack. Period 2 (Days 6 to 17). • Treatment B: Formula Ia 400 mg TID (Q8°, Days 6 to 15), ritonavir 100 mg QAM (Days 6 to 17) following a meal or snack. • Treatment C: Formula Ia 400 mg BID ([…]° Days 6 to 15), ritonavir 100 mg BID ([…]°, Days 6 to 17) following a meal or snack.

Data set [5] in a line: Clinical study: effect of ketoconazole or ibuprofen on the pharmacokinetics of Formula Ia. In kind it is in vivo, human. Particulars: for AUC / half-life: human, plasma, po, 400 mg. The method, then: The study was conducted in an open-label, randomized, 3-period, 2-sequence crossover manner (FIG. 2). During Period 1, all 12 human subjects were administered a single 400 mg dose of Formula Ia. During Periods 2 and 3, human subjects received multiple doses of interacting drug, either ketoconazole (400 mg BID) or ibuprofen (600 mg TID) in a randomized sequence. The interacting drug was administered beginning on Day 1 (3 days prior to Formula Ia administration) and continued through Day 6. A single dose of Formula Ia was administered on Day 4 (2 hours after administration of the AM dose of interacting drug). Plasma samples for pharmacokinetic and metabolite analyses of Formula Ia was collected at predose (0 hour), 0.5, 1, 1.5, 2, 2.5, 3, 4, 5, 6, 7, 8, 9, 10, 12, 24, 36, 48, and 72 hour postdose for each period. (The 48 and 72 hour postdose samples for Period 1 was collected in an outpatient setting). In Periods 2 and 3, additional blood samples were collected immediately prior to dosing of the Formula Ia on Day 4 and two hours post ketoconazole/ibuprofen administration on Day 5 for determination of ketoconazole or ibuprofen concentration. • Treatment A: Formula Ia (4×100 mg capsules); single dose, P.O following an overnight fast, administered on Day 1 or Period 1. • Treatment B: Ketoconazole 400 mg; PO, administered BID from Day 1 to Day 6, Formula Ia (4×100 mg capsules); single dose, PO following an overnight fast, administered on Day 4 (2 hours after the AM ketoconazole dose). • Treatment C: Ibuprofen 600 mg; PO, TID from Day 1 to Day 6 Formula Ia (4×100 mg capsules); single dose, PO following an overnight fast, administered on Day 4 (2 hours after the AM ibuprofen dose).
Human subjects received a single dose of Formula Ia on Day 1 of Period 1. In Period 2 and Period 3, human subjects were treated for 6 days with either ketoconazole or ibuprofen and received a single dose of Formula Ia on Day 4 of each period. There were at least 7 days between administration of Formula Ia in Period 1 and Period 2 and at least 14 days between administration of Formula Ia in Period 2 and 3.
The proportion of human subjects with plasma concentrations above the in vitro IC50 and IC90 for the HCV replicon at each time point was determined. This plasma concentration data was used to estimate the following primary pharmacokinetic variables for the determination of bioavailability comparisons: • AUC(tf)—Area under the plasma concentration-time curve from Time 0 […]. • Cmax—Maximum observed plasma concentration. • Tmax—Time to maximum observed plasma concentration. • t½—Terminal phase half-life.

The nature of data set [6]: Exposure to Formula Ia when coadministered with food. The class given is in vivo.
Data set [7] concerns HCV. The note with it: HCV positive patients, Nelson et al. 2003; cited from earlier work.
Setting [8] is: Mean (% CV), plasma Formula Ia, single 400 mg dose PO, human subjects.
[9] abbreviates: co-administering ketoconazole with Formula Ia.

Where two headings read alike, the source gives them in different places.

On to `CC(C)c1nc(CN(C)C(=O)N[C@H](C(=O)N[C@@H](Cc2ccccc2)C[C@H](O)[C@H](Cc2ccccc2)NC(=O)OCc2cncs2)C(C)C)cs1` [ritonavir], for which the half life in data set [1] is 3 to 5 h.
Regarding `CCCCC(NC(=O)[C@@H]1[C@@H]2[C@H](CN1C(=O)[C@@H](NC(=O)NC1(CS(=O)(=O)C(C)(C)C)CCCCC1)C(C)(C)C)C2(C)C)C(=O)C(=O)NC1CC1` (some centres unmarked) [Formula XIVa], the EC90 in the data set with HCV [2] stood at 0.03 µg/mL.
Take `CC(C)(C)NC(=O)N[C@H](C(=O)N1CC2C([C@H]1C(=O)NC(CC1CCC1)C(=O)C(N)=O)C2(C)C)C(C)(C)C` (some centres unmarked) [Formula Ia]: the exposure multiple in data set [3] is recorded as ≥ 4 fold. In addition, the “1ST PARENT PEAK AREA” value was found to be 3.81E+07 in the data set with human liver cytosol (HL Cytosol w/ NADPH + 2 uM Ritonavir); 6.19E+07 in the data set on human liver cytosol (HL Cytosol w/ NADPH + 50 uM Mefenamic acid); 6.33E+07 in the data set on human liver cytosol (HL Cytosol w/ NADPH + 100 uM Flufenamic acid); 6.23E+07 with human liver cytosol (HL Cytosol w/ NADPH + 100 uM Phenolphthalein); 6.10E+07 with human liver cytosol (HL Cytosol w/ NADPH + 200 uM Diflunisal); 3.95E+07 in the data set on human liver cytosol (HL Cytosol w/ NADPH Vehicle Control). For the same molecule, the “1ST PARENT PEAK AREA” value with human liver cytosol (HL Cytosol w/o NADPH, 20 μM substrate, 60 min, 37° C.) amounted to 7.41E+07. Further, the C8 is 104 (31) in data set [4] (Mean PK (% CV), Formula Ia TID (400 mg) alone, Day 5) and 48.0 (38) in data set [5] (setting [8]). Besides, in data set [4] (coadministration with 100 mg ritonavir QD or BID compared to monotherapy of Formula Ia alone), the “effect on the PK parameters examined” value is “no effect”. Moreover, the Tmax in data set [4] (human, plasma, oral, Mean PK (% CV), Formula Ia TID (400 mg) alone, Day 5) was determined as 2.13 h; in data set [5] (median, plasma Formula Ia, single 400 mg dose PO, human subjects), 1.75 h. Also, the AUC in data set [4] (human, plasma, oral, Mean PK (% CV), Formula Ia TID (400 mg) alone, Day 5, read-out: AUC8) amounted to 4120 ng·h/mL; in data set [5] (Mean (% CV), plasma Formula Ia, single 400 mg dose PO, human subjects, read-out: AUC(l)) it was 2070 ng·h/mL; in data set [5] (Mean (% CV), plasma Formula Ia, single 400 mg dose PO, human subjects, read-out: AUCall), 2040 ng·h/mL. The Cmax in data set [4] (plasma, oral, Mean PK (% CV), Formula Ia TID (400 mg) alone, Day 5, with food, healthy human subjects) turned out to be 1360 ng/mL; in data set [5] (Mean (% CV), plasma Formula Ia, single 400 mg dose PO, fasted human subjects, alone or with ketoconazole 400 mg BID or ibuprofen 600 mg TID), 571 ng/mL. In addition, the AUC(0-t) in data set [5] (setting [8]) came out at 2000 ng·h/mL. For the same molecule, the MRT in data set [5] (setting [8]) stood at 6.57 h. Moreover, in data set [5] (setting [9]), the “increase in Cmax (average)” value came to 40%. In addition, the “increase of overall exposure (AUC)” value in data set [5] (setting [9]) was “more than 2 fold”. Also, the “increase of trough concentration (C8)” value in data set [5] (setting [9]) is given as “approximately 3 fold”. Also, the “increase in the bioavailability of Formula Ia” value in data set [5] (coadministration of ketoconazole compared to monotherapy of Formula Ia alone) amounted to 2 fold. The “mean residence time (MRT) and effective half-life” value in data set [5] (effect of ketoconazole) is on record as “increased”. For the same molecule, the half-life was 9.11 h in data set [5] (Mean (% CV), plasma Formula Ia, single 400 mg dose PO, human subjects, read-out: t½ (converted)) and 3.3 h in data set [5] (Mean (% CV), plasma Formula Ia, single 400 mg dose PO, human subjects, read-out: t½ eff (converted)). Also, in data set [6], the exposure entry is recorded as “increases”.

B1: recombinant human IL-10: recombinant human IL-10 given to HCV positive patients in a Phase II clinical study (protein)
chain: SPGQGTQSENSCTHFPGNLPNMLRDLRDAFSRVKTFFQMKDQLDNLLLKESLLEDFKGYLGCQALSEMIQFYLEEVMPQAENQDPDIKAHVNSLGENLKTLRLRLRRCHRFLPCENKSKAVEQVKNAFNKLQEKGIYKAMSEFDIFINYIEAYMTMKIRN
Consider B1, for which, in the data set on HCV [7], the hepatic fibrosis result is “decrease” and the viral load result is given as “increase”.

Usually EC90 stands for the concentration at which the effect reaches the 90% level. A lower EC90 goes with an effect from little substance.

The values are drawn from patent publication US20100291034A1, “COMBINATIONS OF HCV PROTEASE INHIBITOR(S) AND CYP3A4 INHIBITOR(S), AND METHODS OF TREATMENT RELATED THERETO” (Schering Corporation, priority 2006, published 2010).
